Experimental data as given in paper PMC10774418, “A cyclin D1 intrinsically disordered domain accesses modified histone motifs to govern gene transcription” (Oncogenesis, 2024).

How the values were obtained:
[1] = tested on: γ-H2AX in cyclin D1^-/- rescue MEFs; test: γ-H2AX abundance / H2A Ser139 phosphorylation after doxorubicin; type: cell-based, mouse; details: cyclin D1^WT rescued cyclin D1^-/- MEFs, p20 and p21, Western blot
Protocol: Whole-cell lysates (50 μg) were separated by 10% SDS-PAGE gel, and the proteins were transferred to nitrocellulose membrane for Western blotting using the following antibodies: anti-FLAG antibody (M2 Aldrich, #F1804, St. Louis, MO), anti-GST (Cell Signaling, #2624, Danvers, MA), anti-β-tubulin (Santa Cruz Biotechnology, #sc-55529, Santa Cruz, CA), anti-Vinculin (Sigma-Aldrich, #V9131 St. Louis, MO), Topoisomerase 2 A (Santa Cruz Biotechnology, #sc-365916, Santa Cruz, CA), Histone 2B Serine 14 P (Santa Cruz Biotechnology, #sc-31671, Santa Cruz, CA), Histone 2B (Santa Cruz Biotechnology, #sc-10808, Santa Cruz, CA), γH2A.X (Cell Signaling, #9718, Danvers, MA) and H2A.X (Cell Signaling, #2595, Danvers, MA).

[2] = tested on: cyclin D1-/- 3T3 rescue cells; test: Etoposide sensitivity (cell viability); type: cell-based, mouse; details: 5, 10 µM, 24 h, N=6
[3] = tested on: CDK4; test: Mammalian two-hybrid, 293 T; type: cell-based, human; details: 293 T cells, Fig. S7
Protocol: Mammalian two-hybrid was conducted following the manufacturer’s instruction (Promega, Madison, WI). The human CDK4 cDNA was cloned into pBIND vector, and the human cyclin D1 cDNA (wild type or mutants) was cloned into pACT vector to generate fusion proteins with the DNA-binding domain of Gal4 (Gal4-CDK4), and the activation domain of VP16 (VP16-cyclin D1), respectively. Gal4-CDK4, VP16-cyclin D1 and pG5-Luc reporter containing five copies of Gal4 binding sites upstream of a minimal TATA box and the firefly luciferase gene (Promega) were co-transfected into MCF-7 or HEK-293T cells with Superfect reagent 48 h after transfection, the cells were lysed, and the amount of luciferase activity was quantitated. Transfection efficiency was normalized using renilla luciferase.

| Molecule | CDK4 binding [3] | also measured |
| --- | --- | --- |
| COc1cccc2c1C(=O)c1c(O)c3c(c(O)c1C2=O)C[C@@](O)(C(=O)CO)C[C@@H]3O[C@H]1C[C@H](N)[C@H](O)[C@H](C)O1 [doxorubicin] | – | γ-H2AX abundance [1]: increased |
| COc1cc([C@@H]2c3cc4c(cc3[C@@H](O[C@@H]3O[C@@H]5CO[C@@H](C)O[C@H]5[C@H](O)[C@H]3O)[C@H]3COC(=O)[C@H]23)OCO4)cc(OC)c1O [etoposide] | – | sensitivity to etoposide ([2]; cyclin D1 rescued cells): more sensitive; change in sensitivity to etoposide ([2]; upon deletion of the E domain): modest but significant reduction in sensitivity |
| E278/280 A: cyclin D1 double point mutant within the E region | maintained enhanced binding | – |
| E278A: cyclin D1 point mutant within the E region | maintained enhanced binding | – |
| E280A: cyclin D1 point mutant within the E region | maintained enhanced binding | – |
